In article PMC7288026, “Novel Class of Chalcone Oxime Ethers as Potent Monoamine Oxidase-B and Acetylcholinesterase Inhibitors” (Molecules, 2020):
Where “and” joins values, the source holds several entries; their conditions need not be identical. Equal values may be shown once. Read-outs that look alike come from different tables or passages of the source.

Columns and labels:
[1] = target: T1, MAO-B (Homo sapiens, UniProt P27338); details: read-out: IC50 MAO-B of earlier chalcone derivative; cited from earlier work
T1 construct: purchased Sigma-Aldrich
T1 sequence (P27338 1-520): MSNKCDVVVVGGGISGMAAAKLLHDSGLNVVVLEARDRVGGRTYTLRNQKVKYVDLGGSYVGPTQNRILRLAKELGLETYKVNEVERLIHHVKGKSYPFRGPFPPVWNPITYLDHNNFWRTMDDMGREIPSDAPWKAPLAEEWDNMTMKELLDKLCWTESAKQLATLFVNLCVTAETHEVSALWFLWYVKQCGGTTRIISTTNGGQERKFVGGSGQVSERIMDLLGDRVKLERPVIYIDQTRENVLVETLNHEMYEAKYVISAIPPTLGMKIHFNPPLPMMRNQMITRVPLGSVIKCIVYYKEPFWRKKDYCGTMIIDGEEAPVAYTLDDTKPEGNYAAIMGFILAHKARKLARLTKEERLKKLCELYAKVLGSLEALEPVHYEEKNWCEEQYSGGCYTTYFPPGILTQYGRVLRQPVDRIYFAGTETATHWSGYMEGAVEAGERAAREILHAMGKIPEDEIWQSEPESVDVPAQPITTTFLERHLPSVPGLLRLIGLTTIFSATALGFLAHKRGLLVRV

[2] = target: T1, MAO-B; experiment: biochemical; details: for SI (selectivity index, ratio of IC50 MAO-A to MAO-B): MAO-A vs. MAO-B IC50 ratio; for IC50: mean ± standard error of duplicates, reference compounds after 30 min preincubation with enzyme, read-out: IC50 (µM) MAO-B; for remaining activity at 1 µM: read-out: Residual Activity (%) MAO-B (1.0 µM)
Experimental: Recombinant hMAO-A and hMAO-B activities were assayed while using kynuramine (0.06 mM) and benzylamine (0.3 mM) as substrates, respectively, as described previously. […] AChE activity was measured using Type VI-S from Electrophorus electricus in the presence of 0.5 mM 5,5’-dithiobis(2-nitrobenzoic acid) and 0.5 mM acetylthiocholine iodide, as described previously. Enzymes and chemicals were purchased from Sigma–Aldrich (St. Louis, MO, USA). […]

[3] = target: T2, recombinant hMAO-A (Homo sapiens, UniProt P21397); experiment: MAO-A inhibition assay (kynuramine substrate); format: biochemical; details: for remaining activity at 1 µM: mean ± standard error of duplicate experiments; for IC50: mean ± standard error of duplicates, reference compounds after 30 min preincubation with enzyme
T2 construct: purchased Sigma-Aldrich
T2 sequence (P21397 1-527): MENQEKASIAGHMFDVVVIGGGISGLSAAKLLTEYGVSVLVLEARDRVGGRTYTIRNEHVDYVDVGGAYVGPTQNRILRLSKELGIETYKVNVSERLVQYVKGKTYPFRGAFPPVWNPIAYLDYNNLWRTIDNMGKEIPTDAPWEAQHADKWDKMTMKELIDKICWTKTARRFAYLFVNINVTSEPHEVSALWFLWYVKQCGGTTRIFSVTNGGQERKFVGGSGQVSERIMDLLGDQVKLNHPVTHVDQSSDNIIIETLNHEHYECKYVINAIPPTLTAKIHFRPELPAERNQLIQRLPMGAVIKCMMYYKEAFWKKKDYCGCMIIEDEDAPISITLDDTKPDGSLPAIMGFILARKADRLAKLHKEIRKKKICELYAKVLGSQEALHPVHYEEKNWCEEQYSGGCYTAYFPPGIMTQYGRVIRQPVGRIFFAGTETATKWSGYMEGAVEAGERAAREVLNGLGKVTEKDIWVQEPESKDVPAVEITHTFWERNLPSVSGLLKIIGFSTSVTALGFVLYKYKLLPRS
Experimental: Recombinant hMAO-A and hMAO-B activities were assayed while using kynuramine (0.06 mM) and benzylamine (0.3 mM) as substrates, respectively, as described previously. […] AChE activity was measured using Type VI-S from Electrophorus electricus in the presence of 0.5 mM 5,5’-dithiobis(2-nitrobenzoic acid) and 0.5 mM acetylthiocholine iodide, as described previously. Enzymes and chemicals were purchased from Sigma–Aldrich (St. Louis, MO, USA).
(§1) AChE inhibitory activities were also determined, except at a concentration of 10 µM. […] Kinetic experiments were carried out at five substrate and three inhibitor concentrations.

[4] = target: T1, MAO-B; experiment: Reversibility of MAO-B inhibition by dialysis; format: biochemical; details: for Reversibility of MAO-B inhibition: dialysis method
Source text: Relative activities of undialyzed (AU) and dialyzed (AD) samples were used to determine the reversibilities.

[5] = target: T3, AChE (Type VI-S from Electrophorus electricus) (Electrophorus electricus, UniProt O42275); experiment: AChE inhibition assay (DTNB / acetylthiocholine iodide); format: biochemical; details: for remaining activity at 10 µM: mean ± standard error of duplicate experiments
T3 construct: purchased Sigma-Aldrich Type VI-S
Experimental: AChE activity was measured using Type VI-S from Electrophorus electricus in the presence of 0.5 mM 5,5’-dithiobis(2-nitrobenzoic acid) and 0.5 mM acetylthiocholine iodide, as described previously. Enzymes and chemicals were purchased from Sigma–Aldrich (St. Louis, MO, USA).
Kinetic experiments were carried out at five substrate and three inhibitor concentrations.

[6] = target: T1, MAO-B; experiment: Kinetics of MAO-B inhibition (Lineweaver-Burk and secondary plots); format: biochemical; details: for Mode of MAO-B inhibition: Lineweaver-Burk plots; for Ki: competitive inhibition, secondary plots of slopes vs. inhibitor concentration
Experimental: as §1

[7] = compound at 1.0 µM, read-out: Residual Activity (%) MAO-A (1.0 µM)
[8] = compound at 10 µM, read-out: Residual Activity (%) AChE (10 µM)

T3 sequence (O42275 24-633): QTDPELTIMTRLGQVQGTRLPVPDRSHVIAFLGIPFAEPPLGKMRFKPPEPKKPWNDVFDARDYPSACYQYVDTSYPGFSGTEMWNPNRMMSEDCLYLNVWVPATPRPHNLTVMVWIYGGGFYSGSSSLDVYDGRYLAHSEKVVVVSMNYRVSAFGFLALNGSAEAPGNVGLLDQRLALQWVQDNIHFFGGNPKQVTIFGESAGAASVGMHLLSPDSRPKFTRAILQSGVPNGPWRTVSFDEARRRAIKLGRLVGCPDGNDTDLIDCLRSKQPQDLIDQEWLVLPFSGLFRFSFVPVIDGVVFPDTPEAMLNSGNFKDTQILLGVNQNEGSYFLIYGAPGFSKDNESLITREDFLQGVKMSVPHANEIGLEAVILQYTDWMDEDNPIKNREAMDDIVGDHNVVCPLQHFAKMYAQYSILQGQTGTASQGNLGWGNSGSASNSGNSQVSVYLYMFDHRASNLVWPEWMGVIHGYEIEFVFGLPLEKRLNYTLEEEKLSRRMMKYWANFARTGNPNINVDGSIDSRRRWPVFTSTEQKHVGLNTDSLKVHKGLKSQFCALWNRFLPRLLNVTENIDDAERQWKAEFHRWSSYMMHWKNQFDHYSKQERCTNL

Compound | IC50 [1] [nM] | MAO-B potency relative to clorgyline (times more potent) [2] | MAO-B potency relative to lazabemide (times more potent) [2] | MAO-B potency relative to pargyline (times more potent) [2] [times] | SI (selectivity index, ratio of IC50 MAO-A to MAO-B) [2] | IC50 [2] | remaining activity at 1 µM [2] [%] | remaining activity at 1 µM [3, 7] [%] | IC50 [3] [µM] | Reversibility of MAO-B inhibition [4] | Relative MAO-B activity, dialyzed (AD) ([4]; ~2 × IC50 of inhibitor, 30 min preincubation, after dialysis) [%] | Relative MAO-B activity, undialyzed (AU) ([4]; ~2 × IC50 of inhibitor, 30 min preincubation, undialyzed) [%] | IC50 [5] [nM] | remaining activity at 10 µM [5, 8] [%] | Mode of MAO-B inhibition [6] | Ki [6] [nM] | remaining activity at 1 µM ([3]; read-out: Residual Activity (%) MAO-A (1.0 µM), compound at 1.0 µM) [%] | remaining activity at 10 µM ([5]; read-out: Residual Activity (%) AChE (10 µM), compound at 10 µM) [%]
CCO/C(C)=N/Oc1ccc(/C=C/C(=O)c2ccc(F)cc2)cc1 [L3, ethyl (1E)-N-{4-[(1E)-3-(4-fluorophenyl)-3-oxoprop-1-en-1-yl]phenoxy}ethanimidate] | 53 |  |  |  |  |  |  |  |  |  |  |  |  |  |  |  |  | 
O=C(/C=C/c1ccc(ON=C2CCCCC2)cc1)c1ccc(F)cc1 [COE-6] |  | 105.6 times and 105 times | 2.33 times and 2.3 times | 1.1 | 222.2 | 0.02 µM and 0.018 µM | -1.06 ± 1.84 | 76.8 ± 3.98 | 4 ± 0.021 | reversible inhibitors | 81.1 | 19.7 | > 40000 | 79.4 ± 3.97 | competitively inhibited | 7.5 |  | 
COc1ccc(/C=C/C(=N/Oc2ccc(/C=C/C(=O)c3ccc(F)cc3)cc2)c2ccc(OC)cc2)cc1 [COE-22] |  |  |  |  |  | 0.028 ± 0.0042 µM | 5.47 ± 0.21 | 81.8 ± 0.99 |  | reversible inhibitors |  |  |  | < 50 | competitively inhibited | 10 |  | 
COc1ccc(C(=O)/C=C/c2ccc(O/N=C3\CCc4ccccc43)cc2)cc1 [COE-4] |  |  |  |  | 32.7 | 0.059 ± 0.012 µM | 4.31 ± 1.22 |  | 19.3 ± 0.21 |  |  |  | > 40000 |  |  |  | 83.7 ± 1.54 | 62.1 ± 1.51
COc1ccc(C(=O)/C=C/c2ccc(ON=C(c3ccccc3)c3ccccc3)cc2)cc1 [COE-3] |  |  |  |  | >208.3 | 0.048 ± 0.021 µM | 21.6 ± 4.88 | 87.3 ± 1 | > 10 |  |  |  | > 40000 | 77.1 ± 0.66 |  |  |  | 
